Patent publication US20020026053A1, “Novel 3-(substituted) -2- indolinones compounds and use thereof as inhibitors of protein kinase activity” (priority 1997, published 2002)

Test system: PDGF-R
Experiment: PDGF-R Assay (cellular ELISA, U1242 cells)
Format: cell-based
Parameters: concentration or dose not given beside the values
Settings: protocol P.119
Procedure, shortened: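 U1242 cells seeded in 0.5% serum, serum-starved, then exposed to compound for 2 hr at 37°C before 5–10 min ligand stimulation and lysis in HNTG. Lysate captured on receptor-antibody-coated plates; phosphotyrosine detected with polyclonal anti-pTyr, goat anti-rabbit IgG and ABTS/H2O2, A410 (ref 630 nm), versus untreated cells.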

Q: For Cc1c(Br)cc(Br)c2c1C(=Cc1ccc(CO)o1)C(=O)N2 [10739/H11], which “PDGF Kinase % Inhibition (P.119)” value is on record?
A: 4.2%
